The values that follow are results of earlier work, collected in patent publication US20180014537A1, “NOVEL COMPOSITIONS AND METHODS FOR CONTROLLING SOIL BORNE PATHOGENS OF AGRICULTURAL CROPS” (ADJUVANTS UNLIMITED LLC, priority 2015, published 2018).

The structures appear in SMILES notation.

One series relates to tomato seedlings. The settings on record: at 24 hours, equivalent concentrations.
For series [1] the following is noted: in vivo.
The conditions of series [2]: soil drench.
For the next series, the system named is Meloidogyne incognita. The settings on record: 3.2 uL per liter as a soil drench.

As to `CCCCCC[C@@H](O)C/C=C\CCCCCCCC(=O)OC` [ricinoleic acid methyl ester], the mortality of seedling with tomato seedlings was 0%.

Regarding `CCCCCCCCC(=O)OC` [PAME, pelargonic acid methyl ester], the “less phytotoxic than the parent pelargonic acid” value in series [1] was 40 fold. The mortality of seedling in the series with tomato seedlings is reported as 100%. Further, the “concentration above which significant phytotoxicity occurred” value in series [2] is “exceeded 4.8 uL per liter”. Also, the “control of Meloidogyne incognita” value in the series on Meloidogyne incognita is “good control”.
